From ChEMBL document CHEMBL5550126, “Identification of naphthalimide-derivatives as novel PBD-targeted polo-like kinase 1 inhibitors with efficacy in drug-resistant lung cancer cells” (Eur J Med Chem, 2024)

What was measured:
[1] = target: Serine/threonine-protein kinase PLK1 (Homo sapiens, UniProt P53350); experiment: Binding affinity to recombinant PLK1 (unknown origin) assessed as dissociation constant by SPR analysis
[2] = tested on: MGC-803; experiment: Anticancer activity against human MGC-803 cells assessed as inhibition of cell growth incubated for 48 hrs by crystal violet staining based analysis; type: functional; conditions: MGC-803, 48 h
[3] = tested on: T-24; experiment: Anticancer activity against human T24 cells assessed as inhibition of cell growth incubated for 48 hrs by crystal violet staining based analysis; type: functional; conditions: T-24, 48 h
[4] = tested on: SK-OV-3; experiment: Anticancer activity against human SK-OV-3 cells assessed as inhibition of cell growth incubated for 48 hrs by crystal violet staining based analysis; type: functional; conditions: SK-OV-3, 48 h
[5] = tested on: NCI-H460; experiment: Anticancer activity against human NCI-H460 cells assessed as inhibition of cell growth incubated for 48 hrs by crystal violet staining based analysis; type: functional; conditions: NCI-H460, 48 h
[6] = tested on: MCF7; experiment: Anticancer activity against human MCF7 cells assessed as inhibition of cell growth incubated for 48 hrs by crystal violet staining based analysis; type: functional; conditions: MCF7, 48 h
[7] = Octanol-water partition coefficient, logP of the compound; type: physicochemical
[8] = tested on: A549/CDDP; experiment: Anticancer activity against human A549/DDP cells assessed as inhibition of cell growth incubated for 48 hrs by crystal violet staining based analysis; type: functional

Serine/threonine-protein kinase PLK1, sequence (P53350 whole entry): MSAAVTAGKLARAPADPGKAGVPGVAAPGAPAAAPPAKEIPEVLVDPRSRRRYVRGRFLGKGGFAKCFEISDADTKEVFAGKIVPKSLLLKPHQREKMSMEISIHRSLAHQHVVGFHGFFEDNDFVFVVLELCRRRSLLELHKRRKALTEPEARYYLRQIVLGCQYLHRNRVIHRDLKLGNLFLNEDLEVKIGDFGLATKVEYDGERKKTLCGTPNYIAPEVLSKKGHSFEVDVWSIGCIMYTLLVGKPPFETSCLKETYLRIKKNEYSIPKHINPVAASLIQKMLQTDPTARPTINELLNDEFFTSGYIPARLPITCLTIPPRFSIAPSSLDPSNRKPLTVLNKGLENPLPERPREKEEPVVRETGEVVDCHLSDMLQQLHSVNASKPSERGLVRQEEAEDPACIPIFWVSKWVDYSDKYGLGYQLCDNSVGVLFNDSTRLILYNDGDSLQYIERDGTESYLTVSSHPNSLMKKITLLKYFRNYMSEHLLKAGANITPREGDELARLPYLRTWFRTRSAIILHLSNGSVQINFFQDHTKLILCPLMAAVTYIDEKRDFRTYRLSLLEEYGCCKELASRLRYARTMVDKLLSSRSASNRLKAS

| Compound | Kd [1] [µM] | IC50 [2] [µM] | IC50 [3] [µM] | IC50 [4] [µM] | IC50 [5] [µM] | IC50 [6] [µM] | logP [7] | IC50 [8] [µM] |
| --- | --- | --- | --- | --- | --- | --- | --- | --- |
| COc1ccc(CNS(=O)(=O)c2ccc3c4c(cccc24)C(=O)N(CCN2CCCC2)C3=O)cc1 | 16.8 | 4.04 | 8.6 | 5.19 | 5.37 | 10.3 |  |  |
| O=C1c2cccc3c(S(=O)(=O)NCc4ccc(C(F)(F)F)cc4)ccc(c23)C(=O)N1CCN1CCCCC1 | 4.24 | 5.56 | 8.19 | 9.21 | 4.29 | 16.9 |  |  |
| O=C1c2cccc3c(S(=O)(=O)NCc4ccc(C(F)(F)F)cc4)ccc(c23)C(=O)N1CCN1CCCC1 | 7.36 | 3.38 | 4.99 | 4.22 | 4.77 | 5.01 |  |  |
| O=C1c2cccc3c(S(=O)(=O)NCc4ccccc4)ccc(c23)C(=O)N1CCN1CCCC1 | 19.2 | 4.96 | 4.07 | 7.05 | 17.6 | 10.3 |  |  |
| Cc1ccc(CNS(=O)(=O)c2ccc3c4c(cccc24)C(=O)N(CCN(C)C)C3=O)cc1 | 14.2 | 7.4 | 5.89 | 6.64 | 12.5 | 10.5 |  |  |
| CN(C)CCN1C(=O)c2cccc3c(S(=O)(=O)NCc4cccc(F)c4)ccc(c23)C1=O | 17.5 | 4.98 | 2.97 | 3.11 | 9.77 | 7.29 |  |  |
| CN(C)CCN1C(=O)c2cccc3c(S(=O)(=O)NCc4ccccc4)ccc(c23)C1=O | 16.8 | 3.71 | 7.11 | 1.8 | 11.5 | 14.7 |  |  |
| O=C1c2cccc3c(S(=O)(=O)NCc4ccc(F)cc4)ccc(c23)C(=O)N1CCN1CCCCC1 | 3.95 | 5.43 | 1.76 | 8.53 | 4.28 | 9.62 |  |  |
| O=C1c2cccc3c(S(=O)(=O)NCc4ccccc4)ccc(c23)C(=O)N1CCN1CCCCC1 | 2.03 | 5.16 | 2.75 | 12 | 8.17 | 15.4 |  |  |
| COc1ccc(CNS(=O)(=O)c2ccc3c4c(cccc24)C(=O)N(CCN(C)C)C3=O)cc1 | 8.06 | 6.44 | 5.31 | 4.99 | 9.37 | 10.2 |  |  |
| CN(C)CCN1C(=O)c2cccc3c(S(=O)(=O)NCc4ccccc4F)ccc(c23)C1=O | 2.79 | 5.46 | 3.86 | 2.95 | 10.8 | 5.38 |  |  |
| Cc1ccc(CNS(=O)(=O)c2ccc3c4c(cccc24)C(=O)N(CCN2CCCC2)C3=O)cc1 | 17.3 | 4.17 | 5.53 | 3.98 | 8.25 | 6.75 |  |  |
| COc1ccc(CNS(=O)(=O)c2ccc3c4c(cccc24)C(=O)N(CCN2CCCCC2)C3=O)cc1 | 20.1 | 8.1 | 4.51 | 20.5 | 5 | 18.2 |  |  |
| O=C1c2cccc3c(Sc4ccc([N+](=O)[O-])cc4)ccc(c23)C(=O)N1CCN1CCCC1 | 15.4 | 11.2 | 9.23 | 12.2 | 15.6 | 10.8 | 4.26 | > 20 |
| CN(C)CCN1C(=O)c2cccc3c(S(=O)(=O)NCc4ccc(C(F)(F)F)cc4)ccc(c23)C1=O | 5.26 | 5.95 | 2.57 | 7.42 | 8.28 | 6.24 |  |  |
| O=C1c2cccc3c(S(=O)(=O)NCc4ccc(F)cc4)ccc(c23)C(=O)N1CCN1CCCC1 | 2.15 | 3.41 | 2.51 | 4.5 | 2.8 | 3.29 |  |  |
| Cc1ccc(CNS(=O)(=O)c2ccc3c4c(cccc24)C(=O)N(CCN2CCCCC2)C3=O)cc1 | 20.9 | 7.29 | 9.09 | 10.7 | 4.8 | 4.55 |  |  |
| CC[C@@H]1C(=O)N(C)c2cnc(Nc3ccc(C(=O)N[C@H]4CC[C@H](N5CCN(CC6CC6)CC5)CC4)cc3OC)nc2N1C(C)C [VOLASERTIB] | 0.9 |  |  |  |  |  |  |  |
